We go through 5 compounds from US20040242503A1 (priority 2000, published 2004).

One assay relates to LLC-PK1 cells. In words: Apical uptake of L-DOPA in LLC-PK1 cells. The assay is classed as cell-based, porcine. Here is the method:
Cell culture LLC-PK1 cells, a porcine-derived proximal renal tubule epithelial cell line which retains several properties of proximal tubular epithelial cells in culture (Hull, R. N., et al., 1976, In Vitro 12; 670-677), were obtained from the American Type Culture Collection (Rockville, Md.). LLC-PK1 cells (ATCC CRL 1392; passages 198-206) and were maintained in a humidified atmosphere of 5% CO2-95% air at 37° C. and grown in Medium 199 (Sigma Chemical Company, St. Louis, Mo., USA) supplemented with 100 U/ml penicillin G, 0.25 μg/ml amphotericin B, 100 μg/ml streptomycin (Sigma), 3% foetal bovine serum (Sigma) and 25 mM N-2-hydroxyethylpiperazine-N'-2-ethanesulfonic acid (HEPES; Sigma). For subculturing, the cells were dissociated with 0.05% trypsin-EDTA, split 1:4 and subcultured in Costar flasks with 75- or 162-cm^2 growth areas (Costar, Badhoevedorp, The Netherlands). […] The cell medium was changed every 2 days, and the cells reached confluence after 3-5 days of incubation. For 24 hours prior to each experiment, the cell medium was free of foetal bovine serum. […] On the day of the experiment, the growth medium was aspirated and the cells washed with Hanks' medium; thereafter, the cell monolayers were preincubated for 15 min in Hanks' medium at 37° C. The Hanks' medium had the following composition (mM): […] Test substances were applied from the apical side only, and were present during the preincubation and incubation periods. During preincubation and incubation, the cells were continuously shaken and maintained at 37° C.

The target in assay [1] is T1, aromatic L-amino acid decarboxylase (AADC) (Sus scrofa, UniProt P80041).
T1 construct: host or cells: LLC-PK1 cells
T1 sequence (P80041 1-486): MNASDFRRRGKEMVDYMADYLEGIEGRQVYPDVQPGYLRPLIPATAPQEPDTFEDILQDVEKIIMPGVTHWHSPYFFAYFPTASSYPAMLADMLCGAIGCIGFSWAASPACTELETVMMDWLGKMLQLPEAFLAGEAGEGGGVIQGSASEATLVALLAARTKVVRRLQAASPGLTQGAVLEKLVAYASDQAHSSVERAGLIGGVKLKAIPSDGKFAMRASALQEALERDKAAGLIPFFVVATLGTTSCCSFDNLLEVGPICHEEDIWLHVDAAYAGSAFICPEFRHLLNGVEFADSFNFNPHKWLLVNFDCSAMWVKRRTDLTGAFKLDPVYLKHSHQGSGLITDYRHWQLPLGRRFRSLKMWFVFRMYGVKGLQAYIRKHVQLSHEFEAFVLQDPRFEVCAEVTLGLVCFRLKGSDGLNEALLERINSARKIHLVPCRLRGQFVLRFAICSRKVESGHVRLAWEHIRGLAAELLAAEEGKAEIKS
Nature of the assay: Decarboxylation of L-DOPA (AADC activity) in LLC-PK1 cells. The format is cell-based, porcine. To be noted: read-out: inhibition of AADC activity IC50. Here is the method:
On the day of the experiment, the growth medium was aspirated and the cells (LLC-PK1) washed with Hanks' medium; thereafter, the cell monolayers were preincubated for 15 min in Hanks' medium at 37° C. […] The incubation medium also contained pyridoxal phosphate (120 μM), tolcapone (1 μM) and pargyline (100 μM). […] After preincubation, cells were incubated for 6 min in Hanks' medium with 250 μM LDOPA. The reaction was terminated by the addition of 250 μl of […] perchloric acid. The acidified samples were stored at 4° C. before injection into the high pressure liquid chromatograph for the assay of dopamine.
(§1) The high pressure liquid chromatograph system consisted of a pump (Gilson model 302; Gilson Medical Electronics, Villiers le Bel, France) connected to a manometric module (Gilson model 802 C) and a stainless-steel 5 μm ODS column (Biophase; Bioanalytical Systems, West Lafayette, Ind.) of 25 cm length; samples were injected by means of an automatic sample injector (Gilson model 231) connected to a Gilson dilutor (model 401). […] The detection was carried out electrochemically with a glassy carbon electrode, an Ag/AgCl reference electrode and an amperometric detector (Gilson model 141); the detector cell was operated at 0.75 V. The current produced was monitored using the Gilson 712 HPLC software.

Assay [2] is described as follows: Levels of L-DOPA, dopamine, DOPAC and HVA in rat brain and kidney. The assay is classed as in vivo. Here is the method:
as §1, with “Male Wistar rats weighing 170-280 g, kept two per cage under controlled environmental conditions (12 h light/dark cycle and room temperature 24° C.), were used in all experiments. […] The high” for “The high”, “Medical Electronics, […] Bel, France)” for “Medical Electronics, Villiers le Bel, France)”

The target in assay [3] is T2, aromatic L-amino acid decarboxylase (AADC) (Rattus norvegicus, UniProt P14173).
T2 construct: from tissue; host or cells: brain, liver and kidney of male Wistar rats
T2 sequence (P14173 1-480): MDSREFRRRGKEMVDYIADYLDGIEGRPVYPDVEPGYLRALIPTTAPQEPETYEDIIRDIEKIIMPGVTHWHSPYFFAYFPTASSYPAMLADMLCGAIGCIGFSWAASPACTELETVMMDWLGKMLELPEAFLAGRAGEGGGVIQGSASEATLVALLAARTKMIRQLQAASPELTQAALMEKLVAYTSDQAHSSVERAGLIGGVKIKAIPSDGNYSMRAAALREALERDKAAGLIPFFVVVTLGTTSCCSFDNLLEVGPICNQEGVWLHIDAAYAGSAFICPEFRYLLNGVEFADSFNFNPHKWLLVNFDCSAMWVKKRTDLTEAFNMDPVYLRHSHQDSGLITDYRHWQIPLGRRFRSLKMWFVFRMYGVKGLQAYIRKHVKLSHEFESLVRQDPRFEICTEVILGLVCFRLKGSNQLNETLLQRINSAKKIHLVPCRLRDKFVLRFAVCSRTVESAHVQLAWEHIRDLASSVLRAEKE
In words: Assay of AADC in rat tissues (brain, liver, kidney) under Vmax conditions. The format is in vivo. To be noted: 30 mg/kg. The method, then:
Male Wistar rats weighing 170-280 g, kept two per cage under controlled environmental conditions (12 h light/dark cycle and room temperature 24° C.), were used in all experiments.
The reaction was stopped by the addition of 500 μl of 2 M perchloric acid and the preparations kept at 4° C. for 60 min. The samples were then centrifuged (200 g, 2 min. 4° C.) and 500 μl aliquots of the supernatant filtered on Spin-X filter tubes (Costar) were used for the assay of dopamine.
Since high doses of benserazide may result in inhibition of AADC in brain (Da Prada, et al., 1987, Eur.

Assay [4] can be described thus: Levels of L-DOPA in plasma of rats. The assay is classed as in vivo, rat. Particulars: oral, 30 min before L-DOPA 12 mg/kg plus benserazide 3 mg/kg. Here is the method: as §1, with “Male Wistar rats weighing 170-280 g, kept two per cage under controlled environmental conditions (12 h light/dark cycle and room temperature 24° C.), were used in all experiments. […] The high” for “The high”, “Medical Electronics, […] Bel, France)” for “Medical Electronics, Villiers le Bel, France)”

Where [5] appears, read: brain, L-DOPA 12 mg/kg alone, 60 min.
Where [6] appears, read: brain, R 0.3 mg/kg 30 min before L 12 mg/kg + B 3 mg/kg, 60 min after L + B.
Setting [7] is: brain, R 1.0 mg/kg 30 min before L 12 mg/kg + B 3 mg/kg, 60 min after L + B.
Where [8] appears, read: brain, R 3.0 mg/kg 30 min before L 12 mg/kg + B 3 mg/kg, 60 min after L + B.
The mark [9] stands for this setting: brain, R 10.0 mg/kg 30 min before L 12 mg/kg + B 3 mg/kg, 60 min after L + B.
Where [10] appears, read: brain, R 30.0 mg/kg 30 min before L 12 mg/kg + B 3 mg/kg, 60 min after L + B.
Where [11] appears, read: kidney, R 0.3 mg/kg 30 min before L 12 mg/kg + B 3 mg/kg, 60 min after L + B.
[12] abbreviates: kidney, R 1.0 mg/kg 30 min before L 12 mg/kg + B 3 mg/kg, 60 min after L + B.
[13] abbreviates: kidney, R 3.0 mg/kg 30 min before L 12 mg/kg + B 3 mg/kg, 60 min after L + B.
Where [14] appears, read: kidney, R 10.0 mg/kg 30 min before L 12 mg/kg + B 3 mg/kg, 60 min after L + B.
The mark [15] stands for this setting: kidney, R 30.0 mg/kg 30 min before L 12 mg/kg + B 3 mg/kg, 60 min after L + B.

Molecules are shown by their SMILES. Read-outs that look alike come from different tables or passages of the source. Marks after values point to notes of the source that are not given here.

What is called IC50 is the concentration needed to halve the response being measured. Usually Km stands for the concentration of substrate that gives half-maximal velocity. On to `NC1(C(=O)O)CC2CCC1C2` (centres unmarked) [BHC, 2-aminobicyclo(2,2,1)-heptane-2-carboxylic acid], for which, in the assay with LLC-PK1 cells (1 mM BHC), the “Vmax for L-DOPA uptake in presence of inhibitor” value is given as 3783±244 pmol/mg protein/6 min and the “type of inhibitory effect on the accumulation of L-DOPA” value is reported as “competitive type”. Also, in the assay on LLC-PK1 cells (Sus scrofa, LLC-PK1, read-out: inhibition of L-DOPA uptake IC50), the IC50 stood at 407 µM. The Km with LLC-PK1 cells (read-out: Km for L-DOPA uptake in presence of inhibitor, 1 mM BHC) was determined as 130 ± 19 µM.

For the compound `NC(CO)C(=O)NNCc1ccc(O)c(O)c1O` (centres unmarked) [benserazide], in assay [1], the IC50 is 0.07 µM.

Turning to `CNC(C)(C)C(=O)O` [MeAIB, N-(methylamino)-isobutyric acid], the “effect on the uptake of L-DOPA” value in the assay on LLC-PK1 cells (LLC-PK1 cells) is “failed to affect”.

With `N[C@@H](Cc1ccc(O)c(O)c1)C(=O)O` [L-DOPA, L-3,4-dihydroxyphenylalanine, reference compound], the “Vmax of L-DOPA apical transporter” value in the assay on LLC-PK1 cells (6 min, 1 to 250 μM substrate) is reported as 3069±224 pmol mg protein/6 min. In addition, the “intracellular L-DOPA concentration” value in the assay on LLC-PK1 cells (6 min incubation, medium concentration 0.5 μM) is 4.0 ± 0.4 µM. For the same compound, in the assay on LLC-PK1 cells (read-out: Km of L-DOPA apical transporter, 6 min, 1 to 250 μM substrate), the Km was determined as 47 ± 8 µM. In assay [2] (setting [5]), this compound registered a DA level of 201.0 ± 19.6 ng/g, a DOPAC level of 24.3 ± 2.4 ng/g, an HVA level of 320.6 ± 37.4 ng/g and a L-DOPA level of 9.6 ± 1.0 ng/g. Also, the DA level in assay [2] (kidney, L-DOPA 12 mg/kg alone, 60 min) was found to be 120.8 ± 27.5 ng/g.

On to `Oc1ccc(C=Cc2cc(O)cc(O)c2)cc1` [resveratrol], for which the “kidney AADC activity reduction” value in assay [3] (rat kidney) stood at 38%. The “liver AADC activity reduction” value in assay [3] (rat liver) was found to be 48%. For the same compound, the “effect on plasma levels of L-DOPA” value in assay [4] is listed as “Increases in plasma levels of L-DOPA”. Moreover, the DA level is reported as 280.6 ± 36.6 ng/g in assay [2] (setting [6]); 412.5 ± 79.7 ng/g in assay [2] (setting [8]); 531.9 ± 41.6 ng/g in assay [2] (setting [9]); 403.2 ± 99.2 ng/g in assay [2] (setting [10]); 685.4 + 148.4 ng/g in assay [2] (setting [11]); 622.5 + 61.5* ng/g in assay [2] (setting [12]). The figures for the DA level in assay [2] (setting [13]), in assay [2] (setting [14]) and in assay [2] (setting [15]) were 615.0 + 60.8* ng/g, 710.3 + 67.2* ng/g and 864.4 + 316.1* ng/g, respectively. For the same compound, the DOPAC level in assay [2] (setting [6]) is on record as 192.7 ± 13.8 ng/g; in assay [2] (setting [7]), 149.9 ± 15.8 ng/g; in assay [2] (setting [8]), 221.2 ± 33.8 ng/g; in assay [2] (setting [9]), 316.6 ± 20.9 ng/g; in assay [2] (setting [10]) it was 257.8 ± 51.1 ng/g; in assay [2] (setting [11]), 564.2 + 183.0 ng/g. The DOPAC level in assay [2] (setting [12]) was 598.3 + 144.5 ng/g; in assay [2] (setting [13]), 420.4 + 33.3* ng/g; in assay [2] (setting [14]), 476.3 + 52.8* ng/g; in assay [2] (setting [15]), 731.9 + 427.3 ng/g. Besides, the HVA level came out at 3975.5 ± 462.1 ng/g in assay [2] (setting [6]); 3068.6 ± 234.4 ng/g in assay [2] (setting [7]); 3026.5 ± 337.2 ng/g in assay [2] (setting [8]); 2449.5 ± 93.5 ng/g in assay [2] (setting [9]); 3324.8 ± 529.4 ng/g in assay [2] (setting [10]); 27169.4 ± 2617.0 ng/g in assay [2] (setting [11]). Also, the HVA level in assay [2] (setting [12]) is reported as 26254.3 ± 3677.0 ng/g; in assay [2] (setting [13]), 29094.8 ± 3342.3 ng/g; in assay [2] (setting [14]), 25779.8 ± 3941.7 ng/g; in assay [2] (setting [15]), 27923.6 ± 10686.2 ng/g. In addition, the L-DOPA level was 146.8 ± 14.9 ng/g in assay [2] (setting [6]); 143.5 ± 29.1 ng/g in assay [2] (setting [7]); 180.9 ± 26.3 ng/g in assay [2] (setting [8]); 208.4 ± 21.8 ng/g in assay [2] (setting [9]); 294.0 ± 52.1 ng/g in assay [2] (setting [10]); 857.4 + 103.3* ng/g in assay [2] (setting [11]). The L-DOPA level in assay [2] (setting [12]) is listed as 739.3 + 144.7* ng/g; in assay [2] (setting [13]), 1016.2 + 121.5* ng/g; in assay [2] (setting [14]), 949.3 + 126.4* ng/g; in assay [2] (setting [15]), 1198.6 + 225.1* ng/g.
